Assay results reported in patent US9156845B2, “4-(substituted amino)-7H-pyrrolo[2,3-d] pyrimidines as LRRK2 inhibitors” (Pfizer Inc., priority 2012, dated 2015).

How the values were obtained:
Assay in all cases: ActivX kinase probe assay (human PBMC)
Assay type in all cases: binding
[1] = molecular target: RSK1 domain2 (Homo sapiens (Human), UniProt Q15418); conditions: RSK1 domain2, read-out: percent inhibition
[2] = molecular target: GSK3B (Homo sapiens (Human), UniProt P49841); conditions: GSK3B, read-out: percent inhibition
[3] = molecular target: MARK2 (Homo sapiens (Human), UniProt Q7KZI7); conditions: MARK2, read-out: percent inhibition
[4] = molecular target: NDR2 (Homo sapiens (Human), UniProt Q9Y2H1); conditions: NDR2, read-out: percent inhibition
[5] = test system: JNK1, JNK2, JNK3
[6] = molecular target: CaMK1d (Homo sapiens (Human), UniProt Q8IU85); conditions: CaMK1d, read-out: percent inhibition
[7] = test system: CDK11, CDK8
[8] = test system: p70S6K, p70S6Kb
[9] = molecular target: IRAK4 (Homo sapiens (Human), UniProt Q9NWZ3); conditions: IRAK4, read-out: percent inhibition
[10] = molecular target: PKD2 (Homo sapiens (Human), UniProt Q9BZL6); conditions: PKD2, read-out: percent inhibition
[11] = molecular target: KHS1 (Homo sapiens (Human), UniProt Q9Y4K4); conditions: KHS1, read-out: percent inhibition
[12] = test system: Wnk1, Wnk2, Wnk3
[13] = molecular target: SYK (Homo sapiens (Human), UniProt P43405); conditions: SYK, read-out: percent inhibition
[14] = test system: p38d, p38g
[15] = molecular target: PIK3CD (Homo sapiens (Human), UniProt O00329); conditions: PIK3CD, read-out: percent inhibition
[16] = molecular target: Erk5 (Homo sapiens (Human), UniProt Q13164); conditions: Erk5, read-out: percent inhibition
[17] = molecular target: TLK2 (Homo sapiens (Human), UniProt Q86UE8); conditions: TLK2, read-out: percent inhibition
[18] = molecular target: MAP2K6 (Homo sapiens (Human), UniProt P52564); conditions: MAP2K6, read-out: percent inhibition
[19] = molecular target: MAP2K1 (Homo sapiens (Human), UniProt Q02750); conditions: MAP2K1, read-out: percent inhibition
[20] = molecular target: NDR1 (Homo sapiens (Human), UniProt Q15208); conditions: NDR1, read-out: percent inhibition
[21] = molecular target: BRAF (Homo sapiens (Human), UniProt P15056); conditions: BRAF, read-out: percent inhibition
[22] = molecular target: PIK3CG (Homo sapiens (Human), UniProt P48736); conditions: PIK3CG, read-out: percent inhibition
[23] = molecular target: BTK (Homo sapiens (Human), UniProt Q06187); conditions: BTK, read-out: percent inhibition
[24] = molecular target: ZAP70 (Homo sapiens (Human), UniProt P43403); conditions: ZAP70, read-out: percent inhibition
[25] = molecular target: PKR (Homo sapiens (Human), UniProt P19525); conditions: PKR, read-out: percent inhibition
[26] = molecular target: JAK1 domain2 (Homo sapiens (Human), UniProt P23458); conditions: JAK1 domain2, read-out: percent inhibition
[27] = test system: KSR1, KSR2
[28] = molecular target: MLK3 (Homo sapiens (Human), UniProt Q16584); conditions: MLK3, read-out: percent inhibition
[29] = test system: ABL, ARG
[30] = molecular target: MAP3K1 (Homo sapiens (Human), UniProt Q13233); conditions: MAP3K1, read-out: percent inhibition
[31] = molecular target: TLK1 (Homo sapiens (Human), UniProt Q9UKI8); conditions: TLK1, read-out: percent inhibition
[32] = molecular target: PIP4K2A (Homo sapiens (Human), UniProt P48426); conditions: PIP4K2A, read-out: percent inhibition
[33] = test system: MST4, YSK1
[34] = molecular target: CDK5 (Homo sapiens (Human), UniProt Q00535); conditions: CDK5, read-out: percent inhibition
[35] = test system: MAP2K1, MAP2K2
[36] = molecular target: GPRK6 (Homo sapiens (Human), UniProt P43250); conditions: GPRK6, read-out: percent inhibition

Chain of TLK1 (Q9UKI8 whole entry): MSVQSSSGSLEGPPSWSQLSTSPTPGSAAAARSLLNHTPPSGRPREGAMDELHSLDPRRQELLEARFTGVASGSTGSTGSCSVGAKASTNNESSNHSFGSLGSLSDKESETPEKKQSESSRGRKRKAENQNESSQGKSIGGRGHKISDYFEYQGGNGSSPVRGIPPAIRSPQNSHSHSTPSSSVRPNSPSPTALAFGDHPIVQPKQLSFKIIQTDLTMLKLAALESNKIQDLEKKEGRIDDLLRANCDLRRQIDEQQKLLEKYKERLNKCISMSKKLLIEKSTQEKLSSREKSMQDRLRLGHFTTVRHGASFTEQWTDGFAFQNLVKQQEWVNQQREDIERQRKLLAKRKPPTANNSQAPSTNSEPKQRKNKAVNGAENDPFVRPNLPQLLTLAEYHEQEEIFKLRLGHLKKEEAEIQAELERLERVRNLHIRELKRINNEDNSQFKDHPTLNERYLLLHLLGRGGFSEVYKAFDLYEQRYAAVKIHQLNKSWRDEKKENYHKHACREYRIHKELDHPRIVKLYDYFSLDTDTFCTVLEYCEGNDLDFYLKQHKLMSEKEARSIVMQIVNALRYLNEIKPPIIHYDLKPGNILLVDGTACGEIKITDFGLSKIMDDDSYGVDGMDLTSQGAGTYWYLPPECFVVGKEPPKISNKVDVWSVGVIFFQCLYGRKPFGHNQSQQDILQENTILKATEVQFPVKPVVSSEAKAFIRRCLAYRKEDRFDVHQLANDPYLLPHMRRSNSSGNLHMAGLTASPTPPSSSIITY
Chain of ZAP70 (P43403 whole entry): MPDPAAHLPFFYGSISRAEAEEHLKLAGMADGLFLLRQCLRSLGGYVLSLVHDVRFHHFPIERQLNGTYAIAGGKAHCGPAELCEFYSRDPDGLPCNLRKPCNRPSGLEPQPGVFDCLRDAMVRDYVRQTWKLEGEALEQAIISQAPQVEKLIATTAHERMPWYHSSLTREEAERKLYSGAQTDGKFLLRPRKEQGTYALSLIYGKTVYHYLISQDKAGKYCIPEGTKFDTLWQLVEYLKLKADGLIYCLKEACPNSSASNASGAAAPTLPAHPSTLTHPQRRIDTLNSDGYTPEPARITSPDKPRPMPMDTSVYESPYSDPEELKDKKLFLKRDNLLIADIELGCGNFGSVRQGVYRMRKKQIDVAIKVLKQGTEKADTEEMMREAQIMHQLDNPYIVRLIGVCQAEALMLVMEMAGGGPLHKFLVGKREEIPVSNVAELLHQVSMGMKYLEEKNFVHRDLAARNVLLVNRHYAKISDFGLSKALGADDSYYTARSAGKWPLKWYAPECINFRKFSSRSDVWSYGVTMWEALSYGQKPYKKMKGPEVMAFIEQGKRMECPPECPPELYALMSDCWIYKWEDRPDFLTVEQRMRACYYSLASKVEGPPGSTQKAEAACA
Chain of MLK3 (Q16584 whole entry): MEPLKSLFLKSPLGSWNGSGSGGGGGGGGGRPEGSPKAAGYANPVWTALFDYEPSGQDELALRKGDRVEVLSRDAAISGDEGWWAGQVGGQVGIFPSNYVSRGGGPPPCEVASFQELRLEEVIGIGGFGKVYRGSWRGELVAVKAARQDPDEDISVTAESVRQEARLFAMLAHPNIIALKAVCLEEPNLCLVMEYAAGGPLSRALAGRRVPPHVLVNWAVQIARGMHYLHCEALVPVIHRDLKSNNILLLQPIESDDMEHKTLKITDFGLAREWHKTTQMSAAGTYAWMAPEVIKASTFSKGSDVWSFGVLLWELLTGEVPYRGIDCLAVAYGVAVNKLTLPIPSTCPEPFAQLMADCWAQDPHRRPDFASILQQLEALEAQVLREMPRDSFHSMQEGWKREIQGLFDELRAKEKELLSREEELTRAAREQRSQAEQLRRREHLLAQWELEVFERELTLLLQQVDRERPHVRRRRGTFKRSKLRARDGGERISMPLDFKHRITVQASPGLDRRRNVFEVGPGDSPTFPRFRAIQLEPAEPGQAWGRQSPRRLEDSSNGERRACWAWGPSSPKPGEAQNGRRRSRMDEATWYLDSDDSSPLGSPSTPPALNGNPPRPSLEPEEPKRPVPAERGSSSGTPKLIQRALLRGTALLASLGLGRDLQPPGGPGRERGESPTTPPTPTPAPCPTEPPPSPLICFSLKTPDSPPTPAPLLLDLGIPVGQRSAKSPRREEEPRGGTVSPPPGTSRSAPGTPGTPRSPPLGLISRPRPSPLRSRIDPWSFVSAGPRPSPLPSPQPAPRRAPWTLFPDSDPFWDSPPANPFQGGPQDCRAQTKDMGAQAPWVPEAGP
Chain of Erk5 (Q13164 whole entry): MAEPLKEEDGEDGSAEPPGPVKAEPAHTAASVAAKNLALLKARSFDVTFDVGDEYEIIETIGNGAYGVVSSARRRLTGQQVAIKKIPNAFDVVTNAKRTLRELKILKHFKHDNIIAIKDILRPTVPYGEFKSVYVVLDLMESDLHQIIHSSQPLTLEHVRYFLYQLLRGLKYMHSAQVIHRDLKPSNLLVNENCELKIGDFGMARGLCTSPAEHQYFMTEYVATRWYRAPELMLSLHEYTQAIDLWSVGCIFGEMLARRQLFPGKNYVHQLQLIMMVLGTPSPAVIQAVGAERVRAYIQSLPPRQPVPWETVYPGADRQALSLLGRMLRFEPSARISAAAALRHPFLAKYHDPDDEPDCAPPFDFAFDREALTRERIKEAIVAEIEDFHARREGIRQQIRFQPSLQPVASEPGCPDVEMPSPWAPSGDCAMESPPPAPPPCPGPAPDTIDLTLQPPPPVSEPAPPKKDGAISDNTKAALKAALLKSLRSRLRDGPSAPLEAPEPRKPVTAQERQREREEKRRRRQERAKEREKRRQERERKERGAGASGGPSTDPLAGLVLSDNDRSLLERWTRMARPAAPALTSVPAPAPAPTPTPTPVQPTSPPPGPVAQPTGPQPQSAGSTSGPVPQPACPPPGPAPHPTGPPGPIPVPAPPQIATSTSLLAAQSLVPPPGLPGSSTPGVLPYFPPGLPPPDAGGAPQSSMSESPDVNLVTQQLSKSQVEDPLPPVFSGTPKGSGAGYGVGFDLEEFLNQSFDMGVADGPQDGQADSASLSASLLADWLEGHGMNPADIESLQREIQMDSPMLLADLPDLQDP
Chain of PKD2 (Q9BZL6 whole entry): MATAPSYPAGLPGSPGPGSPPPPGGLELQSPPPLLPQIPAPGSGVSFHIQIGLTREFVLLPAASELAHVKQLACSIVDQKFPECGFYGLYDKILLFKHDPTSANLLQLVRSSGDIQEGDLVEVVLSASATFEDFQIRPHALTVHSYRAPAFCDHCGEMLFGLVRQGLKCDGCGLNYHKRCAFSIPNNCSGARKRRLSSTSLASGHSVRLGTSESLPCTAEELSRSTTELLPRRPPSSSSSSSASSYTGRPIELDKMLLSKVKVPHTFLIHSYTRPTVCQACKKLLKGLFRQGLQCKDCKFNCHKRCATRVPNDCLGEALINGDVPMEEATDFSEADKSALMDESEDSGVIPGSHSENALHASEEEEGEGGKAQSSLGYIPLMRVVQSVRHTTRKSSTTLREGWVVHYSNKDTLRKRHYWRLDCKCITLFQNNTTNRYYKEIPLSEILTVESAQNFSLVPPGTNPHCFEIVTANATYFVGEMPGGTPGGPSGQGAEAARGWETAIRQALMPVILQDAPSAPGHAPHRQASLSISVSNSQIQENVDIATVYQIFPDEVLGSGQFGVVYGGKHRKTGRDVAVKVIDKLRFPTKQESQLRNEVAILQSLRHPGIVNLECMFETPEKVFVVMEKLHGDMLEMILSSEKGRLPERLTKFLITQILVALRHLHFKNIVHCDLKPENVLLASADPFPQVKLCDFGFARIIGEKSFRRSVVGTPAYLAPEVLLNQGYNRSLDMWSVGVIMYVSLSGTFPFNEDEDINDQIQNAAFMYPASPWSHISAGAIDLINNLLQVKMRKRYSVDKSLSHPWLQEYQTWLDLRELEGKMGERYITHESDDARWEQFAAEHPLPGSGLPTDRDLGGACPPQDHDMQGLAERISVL
Chain of IRAK4 (Q9NWZ3 whole entry): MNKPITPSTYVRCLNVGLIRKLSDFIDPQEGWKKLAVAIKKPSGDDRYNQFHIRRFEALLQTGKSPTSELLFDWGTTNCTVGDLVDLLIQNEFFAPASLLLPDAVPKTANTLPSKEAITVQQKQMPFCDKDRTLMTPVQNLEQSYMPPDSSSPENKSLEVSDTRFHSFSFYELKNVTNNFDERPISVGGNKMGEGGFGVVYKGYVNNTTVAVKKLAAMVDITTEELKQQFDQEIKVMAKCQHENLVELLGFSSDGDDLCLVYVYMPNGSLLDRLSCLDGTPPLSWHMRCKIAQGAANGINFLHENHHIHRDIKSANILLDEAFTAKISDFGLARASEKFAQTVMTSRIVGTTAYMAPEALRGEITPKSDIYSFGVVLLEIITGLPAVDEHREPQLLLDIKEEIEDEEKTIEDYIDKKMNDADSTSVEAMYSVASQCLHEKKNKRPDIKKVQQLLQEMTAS
Chain of NDR2 (Q9Y2H1 whole entry): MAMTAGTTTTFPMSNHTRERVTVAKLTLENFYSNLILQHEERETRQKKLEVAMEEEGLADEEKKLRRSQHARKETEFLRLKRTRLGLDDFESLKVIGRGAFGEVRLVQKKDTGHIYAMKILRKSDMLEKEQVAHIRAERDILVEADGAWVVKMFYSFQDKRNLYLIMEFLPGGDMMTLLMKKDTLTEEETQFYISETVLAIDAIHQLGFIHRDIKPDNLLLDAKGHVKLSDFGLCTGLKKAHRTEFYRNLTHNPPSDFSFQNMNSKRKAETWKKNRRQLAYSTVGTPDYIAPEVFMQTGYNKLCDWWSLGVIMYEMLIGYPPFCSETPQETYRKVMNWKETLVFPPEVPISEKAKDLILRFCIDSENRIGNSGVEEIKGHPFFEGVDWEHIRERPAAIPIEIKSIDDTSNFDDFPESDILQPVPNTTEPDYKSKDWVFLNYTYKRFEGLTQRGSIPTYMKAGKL

Cn1cc(-c2c[nH]c3ncnc(N4CCOCC4)c23)cn1 [Example 1, 5-(1-Methyl-1H-pyrazol-4-yl)-4-(morpholin-4-yl)-7H-pyrrolo[2,3-d]pyrimidine]
inhibition at 0.1 µM ([1]; 0.1 μM): -12.7% | inhibition at 1 µM ([1]; 1 μM): 18.1% | inhibition at 0.1 µM ([2]; 0.1 μM): 2.4% | inhibition at 1 µM ([2]; 1 μM): -5.2% | inhibition at 0.1 µM ([3]; 0.1 μM): 10.1% | inhibition at 1 µM ([3]; 1 μM): 41.6% | inhibition at 0.1 µM ([4]; 0.1 μM): 22.8% | inhibition at 1 µM ([4]; 1 μM): 31.2% | percent inhibition ([5]; 0.1 μM): 7.1% | percent inhibition ([5]; 1 μM): 7.7% | inhibition at 0.1 µM ([6]; 0.1 μM): 8.4% | inhibition at 1 µM ([6]; 1 μM): 3.2% | percent inhibition ([7]; 0.1 μM): 4.4% | percent inhibition ([7]; 1 μM): 2.4% | percent inhibition ([8]; 0.1 μM): 9.4% | percent inhibition ([8]; 1 μM): −3.5% | inhibition at 0.1 µM ([9]; 0.1 μM): 17.7% | inhibition at 1 µM ([9]; 1 μM): 34.7% | inhibition at 0.1 µM ([10]; 0.1 μM): 2.7% | inhibition at 1 µM ([10]; 1 μM): 20.1% | inhibition at 0.1 µM ([11]; 0.1 μM): 17.8% | inhibition at 1 µM ([11]; 1 μM): 24.6% | percent inhibition ([12]; 0.1 μM): −18.8% | percent inhibition ([12]; 1 μM): −24% | inhibition at 0.1 µM ([13]; 0.1 μM): -8.9% | inhibition at 1 µM ([13]; 1 μM): -6.1% | percent inhibition ([14]; 0.1 μM): −37.3% | percent inhibition ([14]; 1 μM): −24% | inhibition at 0.1 µM ([15]; 0.1 μM): -102% | inhibition at 1 µM ([15]; 1 μM): -65.4% | inhibition at 0.1 µM ([16]; 0.1 μM): -32.8% | inhibition at 1 µM ([16]; 1 μM): -41.9% | inhibition at 0.1 µM ([17]; 0.1 μM): -5.8% | inhibition at 1 µM ([17]; 1 μM): -21.1% | inhibition at 0.1 µM ([18]; 0.1 μM): 17.5% | inhibition at 1 µM ([18]; 1 μM): 19% | inhibition at 0.1 µM ([19]; 0.1 μM): 3.5% | inhibition at 1 µM ([19]; 1 μM): 17% | inhibition at 0.1 µM ([20]; 0.1 μM): -19.6% | inhibition at 1 µM ([20]; 1 μM): -7.8% | inhibition at 0.1 µM ([21]; 0.1 μM): -6.5% | inhibition at 1 µM ([21]; 1 μM): -51.5% | inhibition at 0.1 µM ([22]; 0.1 μM): -18.6% | inhibition at 1 µM ([22]; 1 μM): -62.9% | inhibition at 0.1 µM ([23]; 0.1 μM): 8.7% | inhibition at 1 µM ([23]; 1 μM): 3.7% | inhibition at 0.1 µM ([24]; 0.1 μM): -23.2% | inhibition at 1 µM ([24]; 1 μM): 3.1% | inhibition at 0.1 µM ([25]; 0.1 μM): -4.3% | inhibition at 1 µM ([25]; 1 μM): -17.3% | inhibition at 0.1 µM ([26]; 0.1 μM): -8.1% | inhibition at 1 µM ([26]; 1 μM): -13.7% | percent inhibition ([27]; 0.1 μM): 1.5% | percent inhibition ([27]; 1 μM): −14% | inhibition at 0.1 µM ([28]; 0.1 μM): 1.4% | inhibition at 1 µM ([28]; 1 μM): 4.5% | percent inhibition ([29]; 0.1 μM): 25.8% | percent inhibition ([29]; 1 μM): 22.5% | inhibition at 0.1 µM ([30]; 0.1 μM): -9.4% | inhibition at 1 µM ([30]; 1 μM): 11.9% | inhibition at 0.1 µM ([31]; 0.1 μM): 7.8% | inhibition at 1 µM ([31]; 1 μM): 2.7% | inhibition at 0.1 µM ([32]; 0.1 μM): 12.1% | inhibition at 1 µM ([32]; 1 μM): 6.8% | percent inhibition ([33]; 0.1 μM): −11.4% | percent inhibition ([33]; 1 μM): 15.1% | inhibition at 0.1 µM ([34]; 0.1 μM): -6.5% | inhibition at 1 µM ([34]; 1 μM): -35.1% | percent inhibition ([35]; 0.1 μM): 1% | percent inhibition ([35]; 1 μM): −2.2% | inhibition at 0.1 µM ([36]; 0.1 μM): 8.9% | inhibition at 1 µM ([36]; 1 μM): 23.7%
